The results in this text go back to ChEMBL document CHEMBL1201862, “PubChem BioAssay data set” (2004).

A word on the AC50: it is the midpoint of the concentration-response curve, whichever way the signal moves.

The source made the active and inactive calls. Cut-off read from the data, not from the text of the source, for most assays here: actives have a measured EC50 and inactives only a lower limit. Peptide text beside a SMILES is read from it. * marks the point of attachment. Cbz = O=C(OCc1ccccc1)*

Assay [1] addresses Cytochrome P450 2C9 (Homo sapiens, UniProt P11712).
Assay [2] can be described thus: cytotoxicity toward NIH3T3 fibroblasts, dose response, counter-screen, cell-based, ATP luminescence, mouse fibroblasts (AID 2010).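 Note: cells exposed to compound for about 90 hours before reading.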 The assay is classed as functional.
Assay [3] can be described thus: inhibitors of intracellular T. cruzi replication, confirmation, NIH3T3 host cells, beta-gal luminescence (AID 2044).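 Note: intracellular parasites grown in NIH/3T3 mouse fibroblasts as host cells; luminescent beta-galactosidase reporter signal from transgenic T. cruzi replicating inside host cells; inhibitors lower the luminescence signal.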 The assay is classed as functional, cell-based.
The target of assay [4] is T1, Corticotropin-releasing factor receptor 2/Corticotropin-releasing factor-binding protein (Homo sapiens, UniProt P24387+Q13324).
T1 sequence (Q13324 whole entry): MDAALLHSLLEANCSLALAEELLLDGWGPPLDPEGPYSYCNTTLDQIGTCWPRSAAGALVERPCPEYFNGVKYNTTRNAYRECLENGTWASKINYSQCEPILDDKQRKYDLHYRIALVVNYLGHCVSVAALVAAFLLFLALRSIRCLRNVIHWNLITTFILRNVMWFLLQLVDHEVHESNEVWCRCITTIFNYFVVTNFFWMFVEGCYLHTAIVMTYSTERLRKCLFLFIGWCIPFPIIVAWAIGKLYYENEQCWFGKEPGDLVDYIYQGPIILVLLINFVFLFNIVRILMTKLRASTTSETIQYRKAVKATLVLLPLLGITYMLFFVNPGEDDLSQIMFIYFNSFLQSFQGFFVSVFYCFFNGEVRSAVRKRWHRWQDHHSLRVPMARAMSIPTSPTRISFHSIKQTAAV
T1 sequence (P24387 whole entry): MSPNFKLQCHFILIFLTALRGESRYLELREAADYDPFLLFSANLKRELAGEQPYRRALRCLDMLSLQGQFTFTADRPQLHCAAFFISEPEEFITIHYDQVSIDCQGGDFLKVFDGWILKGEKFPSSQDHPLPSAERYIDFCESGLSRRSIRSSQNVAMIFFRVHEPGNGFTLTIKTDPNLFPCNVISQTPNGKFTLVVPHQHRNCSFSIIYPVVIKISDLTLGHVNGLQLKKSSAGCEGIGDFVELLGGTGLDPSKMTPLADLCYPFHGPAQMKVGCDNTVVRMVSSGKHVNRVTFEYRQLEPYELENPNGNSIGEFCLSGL
As to the kind of experiment: Dose Response confirmation of uHTS hits for small molecule antagonists of the CRF-binding protein and CRF-R2 receptor complex. The assay is classed as functional. The conditions noted are these: read-out: IC50_Mean.

In assay [5] the target is T1, Corticotropin-releasing factor receptor 2/Corticotropin-releasing factor-binding protein. As to the kind of experiment: activators of CRF receptor 2 with binding protein – uHTS hits, confirmation (AID 602473). The assay is classed as functional. The following applies: read-out: EC50_Mean.
For assay [6], the target named is Cytochrome P450 3A4 (Homo sapiens, UniProt P08684).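 Note: CYP3A4 tested as one member of a cytochrome P450 panel screen.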
The subject of assay [7] is Streptococcus. Put plainly: Group A Streptococcus viability loss, dose response, counter-screen for streptokinase expression inhibitor project, luminescence, BacTiterGlo (AID 1915).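 Note: potency for reduction of bacterial viability or growth.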 The assay is classed as functional, organism-based. A general note: A counterscreen serves to expose hits that act by an unwanted route or on another target.
In assay [8] the test system is Streptococcus sp. 'group A'. Put plainly: growth inhibition of control SK(-) GAS strain, dose response, counter-screen for streptokinase expression inhibitor project, luminescence, kanamycin, BacTiterGlo, confirmation (AID 1900). The assay is classed as functional, organism-based.
Assay [9] concerns the target Paired box protein Pax-8 (Homo sapiens, UniProt Q06710). As to the kind of experiment: inhibitors of PAX8-driven TPO luciferase reporter, dose response, RMG-I cells, cherry-pick (AID 687027).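 Note: luciferase reporter driven by Pax8 target thyroperoxidase promoter measured by SteadyGlo luminescence.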 The assay is classed as functional, cell-based. For orientation: In a reporter assay the amount or activity of a reporter protein is the signal.

Cytochrome P450 3A4, sequence (P08684 whole entry): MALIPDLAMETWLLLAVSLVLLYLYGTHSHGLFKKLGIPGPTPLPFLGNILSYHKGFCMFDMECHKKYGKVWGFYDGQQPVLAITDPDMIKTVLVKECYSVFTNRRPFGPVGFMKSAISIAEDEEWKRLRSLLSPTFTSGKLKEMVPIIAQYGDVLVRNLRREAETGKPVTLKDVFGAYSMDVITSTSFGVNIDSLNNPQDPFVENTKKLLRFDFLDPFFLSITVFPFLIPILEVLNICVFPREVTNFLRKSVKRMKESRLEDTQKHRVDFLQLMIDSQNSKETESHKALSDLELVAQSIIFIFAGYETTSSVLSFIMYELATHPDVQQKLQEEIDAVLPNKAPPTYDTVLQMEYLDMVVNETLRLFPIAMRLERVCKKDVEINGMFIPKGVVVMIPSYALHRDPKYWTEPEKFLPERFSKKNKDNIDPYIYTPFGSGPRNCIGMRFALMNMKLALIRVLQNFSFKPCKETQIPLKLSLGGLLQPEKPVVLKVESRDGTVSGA
Cytochrome P450 2C9, sequence (P11712 whole entry): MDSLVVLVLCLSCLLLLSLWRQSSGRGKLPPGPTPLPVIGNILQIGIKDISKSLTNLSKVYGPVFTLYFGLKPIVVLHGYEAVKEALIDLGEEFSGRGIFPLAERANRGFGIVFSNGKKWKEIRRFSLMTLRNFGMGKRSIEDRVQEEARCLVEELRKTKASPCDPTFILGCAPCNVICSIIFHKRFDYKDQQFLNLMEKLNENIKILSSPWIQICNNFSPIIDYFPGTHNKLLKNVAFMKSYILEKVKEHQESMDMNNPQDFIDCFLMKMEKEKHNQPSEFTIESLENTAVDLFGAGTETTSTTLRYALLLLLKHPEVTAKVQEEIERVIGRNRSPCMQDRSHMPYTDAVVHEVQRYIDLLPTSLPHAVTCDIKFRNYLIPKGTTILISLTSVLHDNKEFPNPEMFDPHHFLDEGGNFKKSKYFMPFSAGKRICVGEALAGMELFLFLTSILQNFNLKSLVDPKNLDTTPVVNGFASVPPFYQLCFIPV
Paired box protein Pax-8, sequence (Q06710 whole entry): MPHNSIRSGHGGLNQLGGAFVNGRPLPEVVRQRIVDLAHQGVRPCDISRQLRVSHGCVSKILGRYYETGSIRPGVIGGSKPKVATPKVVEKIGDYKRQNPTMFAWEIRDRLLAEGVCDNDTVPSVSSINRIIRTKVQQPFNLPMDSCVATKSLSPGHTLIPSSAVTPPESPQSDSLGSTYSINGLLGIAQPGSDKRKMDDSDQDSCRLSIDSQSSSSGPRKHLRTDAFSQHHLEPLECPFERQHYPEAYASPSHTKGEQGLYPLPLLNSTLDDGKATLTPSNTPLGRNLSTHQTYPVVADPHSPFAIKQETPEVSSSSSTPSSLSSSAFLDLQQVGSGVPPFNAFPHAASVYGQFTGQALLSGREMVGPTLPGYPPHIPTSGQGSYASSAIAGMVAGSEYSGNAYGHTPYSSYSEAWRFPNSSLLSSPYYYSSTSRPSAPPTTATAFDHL

With `COc1cc(CN2CCN(C(=O)CC(C)C)CC2)cc(OC)c1OC`, in assay [1], the concentration at half-maximal activity (AC50) is 28.2 µM (inconclusive).

Turning to `Cc1c(C(=O)Nc2nc3ccccc3[nH]2)oc2ccc(Br)cc12`, the EC50 in assay [2] was > 60 µM (not active); in assay [3] it was 1.63 µM (active).

For the molecule `O=S(=O)(NCc1ccccc1)c1ccccc1NCCc1ccccc1`, in [4], the IC50 was > 47.1 µM (inactive). The EC50 in assay [5] was > 53 µM (inactive).

As for `Cc1ccc(OCC(=O)Nc2ccc(S(=O)(=O)Nc3onc(C)c3C)cc2)cc1`, in [6], the concentration at half-maximal activity (AC50) was 35.5 µM (inconclusive).

As for `CN1CCN(c2nc(N3CCN(c4ccccc4)CC3)ncc2F)CC1`, the EC50 is > 30 µM (not active) in [2] and 0.253 µM (active) in assay [3].

In the case of `COc1ccc(NS(=O)(=O)c2cc(-c3nnnn3C)ccc2OC)cc1`, the concentration at half-maximal activity (AC50) in [1] was 25.1 µM (inconclusive).

As to `Cc1cc(O)ccc1N1C(=O)c2cccc3cc([N+](=O)[O-])cc(c23)C1=O`, the values for the EC50 in assay [2] and in [3] were > 60 µM (not active) and 0.234 µM (active), respectively.

As to `CC1CC1c1ccc(/C=C(\C#N)C(=O)Nc2cccc(Cl)c2Cl)o1` (stereo not given), in [5], the EC50 was > 53 µM (inactive).

Consider `CN1CCN(C(CNC(=O)C(=O)Nc2ccc3c(c2)OCCO3)c2ccc(F)cc2)CC1` (stereo not given), for which the EC50 in assay [2] is > 60 µM (not active); in [3], 0.952 µM (active).

With `CO[C@H]1C[C@@H](O[C@@H]2[C@H](C)[C@H](O[C@@H]3O[C@@H](C)C[C@@H](N(C)C)[C@@H]3O)[C@H](C)C[C@]3(CO3)C(=O)[C@H](C)[C@H](O)[C@H](C)[C@H](C)OC(=O)[C@@H]2C)O[C@@H](C)[C@H]1O`, in [6], the AC50 was 12.6 µM (inconclusive).

For the molecule `Cc1ccc2nc(Cl)c(/C=C/C(=O)c3ccco3)cc2c1`, in [4], the IC50 was > 47.1 µM (inactive). For the same molecule, in [5], the EC50 is > 53 µM (inactive).

Turning to `Cc1[nH]c(C)c(S(=O)(=O)NCCc2ccccc2)c1C(=O)N1CCCCC1`, the IC50 in [4] is > 47.1 µM (inactive). The EC50 in assay [5] is > 53 µM (inactive).

Regarding `CCOc1ccc(Nc2nc(N3CCCC3)nc(N3CCN(c4ccc(OC)cc4)CC3)n2)cc1`, the EC50 in assay [2] is > 60 µM (not active); in assay [3], 2.73 µM (active).

Consider `CC(C)(CNC(=O)c1cc(Cl)c(O)c(Cl)c1)N1CCCCC1`, for which the IC50 in [4] is > 47.1 µM (inactive). In addition, the EC50 in assay [5] was > 53 µM (inactive).

As to `O=[N+]([O-])c1nn(-c2ccc3c(c2)OCCO3)[n+]([O-])c1NC1CCCC1`, the EC50 in [2] was > 30 µM (not active); in [3] it was 0.88 µM (active).

For `Cc1ccc(CN2CCN(Cc3nc4c(s3)CCCC4)CC2CCO)cc1` (stereo not given), the EC50 in assay [2] was > 60 µM (not active); in assay [3], 0.546 µM (active).

Regarding `Fc1ccc(Cn2nnnc2C(c2ccc(Cl)cc2)N2CC=C(c3ccc(F)cc3)CC2)cc1` (stereo not given), the EC50 was > 60 µM (not active) in [2] and 1.34 µM (active) in assay [3].

For the molecule `CCCC(=O)NC(=S)Nc1ccc(S(=O)(=O)Nc2ccc(OCC)cc2)cc1`, the EC50 in assay [5] was > 53 µM (inactive).

As for `O=C(OCCN1C(=O)c2ccccc2C1=O)c1cccc(OC(F)F)c1`, in assay [4], the IC50 was > 47.1 µM (inactive). In addition, in assay [5], the EC50 was > 53 µM (inactive).

As for `COCCNC(=O)CN(CC1CCCO1)C(=O)CCC(=O)Nc1ccccn1` (stereo not given), the IC50 in assay [4] was > 47.1 µM (inactive). For the same molecule, the EC50 in assay [5] is > 53 µM (inactive).

Turning to `Cc1cccc(CN2CCN(CC(=O)O)C2=O)c1`, the AC50 in assay [6] was 15.8 µM (inconclusive).

In the case of `N#CCCn1c(=O)c(-c2ccccc2)nc2cnc(Oc3ccccc3)nc21`, in assay [1], the half-maximal activity concentration (AC50) was 15.8 µM (inconclusive).

With `CC(C)CCN=C(S)NC1CCCC1`, the AC50 is 39.8 µM (inconclusive) in [1] and 22.4 µM (inconclusive) in assay [6].

Take `O=C(CCC(=O)N1CCOc2ccc(Cl)cc21)NCc1ccccc1`: in [5], the EC50 is > 53 µM (inactive).

Take `N=C(N)SCc1cccc(-c2nc3ccccc3c(=O)o2)c1`: the concentration at half-maximal activity (AC50) in assay [1] is 5.01 µM (inconclusive).

In the case of `O=C(CCNS(=O)(=O)c1cccs1)N1CCc2ccccc2C1`, the AC50 in [6] is 14.1 µM (inconclusive).

In the case of `Cn1nc([N+](=O)[O-])nc1Oc1ccccc1C(=O)N1CCOCC1`, the EC50 in assay [2] was > 60 µM (not active); in [3], 0.117 µM (active).

For `Cc1noc(C)c1CSc1nc2sc(C)c(C)c2c(=O)n1-c1ccccc1`, the EC50 is > 60 µM (not active) in assay [2] and 1.02 µM (active) in assay [3].

Consider `COc1c(CC=C(C)C)cc(C2CC(=O)c3c(O)cc(O)cc3O2)c(CC=C(C)C)c1O` (stereo not given), for which the EC50 in assay [7] was 2.9 µM (active); in assay [8] it was 3.02 µM (active).

For the molecule `Cc1nnsc1C(=O)NC1CCCc2c1cnn2-c1ccc(C(C)(C)C)cc1` (stereo not given), the results for the EC50 in assay [2] and in assay [3] were > 60 µM (not active) and 1.98 µM (active), respectively.

Take `Cc1nnc2n(Cc3ccccc3)c(=O)c3c4c(sc3n12)COC(C)(C)C4`: in assay [4], the IC50 is > 47.1 µM (inactive). Moreover, the EC50 in [5] was > 53 µM (inactive).

Take `CCCNCCC(c1ccco1)c1ccccc1OC` (stereo not given): the IC50 in [4] is > 47.1 µM (inactive). The EC50 in assay [5] was > 53 µM (inactive).

In the case of `COc1ccc(C(=O)OCC(=O)N(C)C2CCS(=O)(=O)C2)cc1S(=O)(=O)N(C)Cc1ccccc1` (stereo not given), the IC50 in assay [4] was > 47.1 µM (inactive). The EC50 in assay [5] is > 53 µM (inactive).

On to `COc1cc(CNCc2ccncc2)cc(Br)c1OCc1ccccc1F`, for which the results for the EC50 in assay [2] and in assay [3] were > 30 µM (not active) and 2.83 µM (active), respectively.

For the molecule `Cc1ccc(NC(=O)CN(c2ccc(Cl)cc2)S(=O)(=O)c2cc([N+](=O)[O-])ccc2Cl)c(C)c1`, the EC50 was > 60 µM (inconclusive) in [2] and 2.42 µM (active) in assay [3].

`O=C(c1cnn2c(C(F)(F)F)cc(-c3cccs3)nc12)N1CCN(Cc2ccccc2)CC1`: the results for the EC50 in assay [2] and in assay [3] were > 60 µM (not active) and 0.721 µM (active), respectively.

On to `COc1ccc(N2CCN(C3CCCCC3NS(=O)(=O)c3ccc(Cl)cc3)CC2)cc1` (stereo not given), for which, in [5], the EC50 was 4.33 µM (active).

With `O=c1c(-c2cccc(Cl)c2)nc2cncnc2n1C1CC1`, in assay [6], the AC50 was 15.8 µM (inconclusive).

As for `Cc1cc(C)n(-c2nc(SCCN(C)C)c3c4c(sc3n2)COC(C)(C)C4)n1`, the EC50 was > 30 µM (not active) in assay [2] and 0.836 µM (active) in [3].

Turning to `O=C(CSc1nnc(CNc2ccc(F)cc2)o1)OC1CCCCC1`, the AC50 in assay [1] was 17.8 µM (inconclusive).

In the case of `O=C1CC(NS(=O)(=O)c2ccc([N+](=O)[O-])cc2)CN1c1ccc(Cl)cc1` (stereo not given), the EC50 in assay [2] was > 60 µM (not active); in assay [3], 0.477 µM (active).

For the molecule `CCOC(=O)C1=C(CCc2ccccc2)NC(=O)NC1c1cccc([N+](=O)[O-])c1` (stereo not given), in assay [4], the IC50 was > 47.1 µM (inactive). For the same molecule, in assay [5], the EC50 is > 53 µM (inactive).

In the case of `C=CCc1cccc(/C=N/NC(=O)C(C)Nc2cccc(C)c2)c1O` (stereo not given), the EC50 was > 30 µM (not active) in [2] and 1.84 µM (active) in assay [3].

`C[C@@H]1CN([C@@H](C)CO)C(=O)c2cc(NC(=O)Nc3ccc(C(F)(F)F)cc3)ccc2O[C@@H](C)CCCCO[C@@H]1CN(C)Cc1ccncc1`: the concentration at half-maximal activity (AC50) in assay [9] was 9.03 µM (active).

Turning to `Cc1[nH]cnc1C(=O)N/N=C/c1ccc([N+](=O)[O-])s1`, the EC50 in assay [7] was 5.18 µM (active); in assay [2] it was > 60 µM (not active); in assay [3] it was 0.449 µM (active); in assay [8], 2.91 µM (active).

With `CCn1/c(=N\C(=O)CS(=O)(=O)c2ccc(C)cc2)sc2cccc(OC)c21`, the EC50 in assay [2] was 8.46 µM (active); in [3] it was 1.2 µM (active).

For the molecule `O=C(N/N=C/c1ccc(-c2cccc(C(F)(F)F)c2)o1)c1cccc(F)c1`, the EC50 in assay [2] is > 60 µM (not active); in [3], 1.15 µM (active).

For the molecule `Clc1ccc2c(N/N=C/c3cccnc3)ccnc2c1`, the EC50 in assay [2] was > 60 µM (not active); in assay [3], 0.931 µM (active).

In the case of `CC(C)[C@H](NC(=O)OCc1ccccc1)C(=O)N[C@H](C=O)Cc1ccccc1` (Cbz-Val-Phe-aldehyde), the concentration at half-maximal activity (AC50) in assay [1] is 39.8 µM (inconclusive).

For the molecule `C[C@@H](C(=O)O)c1ccc(C(=O)c2cccs2)cc1` [(R)-SUPROFEN], in assay [1], the AC50 was 12.6 µM (inconclusive).
